Laboratory results: patent US20230114123A1, “METHOD OF STIMULATING ASYMMETRIC DIVISION OF SATELLITE STEM CELLS” (Ottawa Hospital Research Institute, priority 2017, published 2023)

What was measured:
EGFR phosphorylation = assay: p-EGFR immunoblot in serum-starved, re-fed primary myoblasts; format: cell-based, mouse; settings: 1 h
Experimental: Cell Culture and Co-Immunoprecipitation. Satellite cells were isolated from WT mice by fluorescence activated cell sorting and cultured as primary myoblasts on collagen-coated plates in primary myoblast growth media (Ham's F10 media (Gibco) with 20% FBS (Wisent), 1% penicillin-streptomycin (Gibco) and 5 ng/mL bFGF (Cedarlane)).
Immunoblotting. Proteins were separated on 10% SDS-PAGE and transferred to Immobilon-P PVDF membrane (EMD Millipore). Membranes were probed with primary antibodies, followed by light chain specific HRP-conjugated secondary antibodies at 1:5000 (Bio-Rad) and developed using Immobilon Western HRP substrate (EMD Millipore). Membranes were visualized using FluorChem HD2 (Alpha Innotech) or exposed to BIOMAX film (Eastman Kodak).

mdx satellite cells = assay: Myog-expressing / myogenic cells on mdx myofibers at 72 h; format: cell-based, mouse; settings: 72 h of mdx myofiber culture, FIG. 4D
Experimental: EDL fiber Culture and siRNA Transfection. […] Briefly, EDL were carefully dissected and incubated in DMEM with 2% L-glutamine, 4.5% glucose, and 110 mg/mL sodium pyruvate (Gibco) containing 0.2% collagenase I (Sigma) for 45 min. Myofibers were isolated using gentle trituration with a glass pipet. Myofibers were cultured for 36, 42, or 72 h in DMEM containing 20% FBS (Wisent), 1% chick embryo extract (MP Biomedicals), and 2.5 ng/ml bFGF (Cedarlane). For pharmacological inhibition, Lapatinib ditosylate (1 mM in DMSO; Santa
Cruz Biotechnology), PTP1b inhibitor CAS 765317-72-4 (10 mM in DMSO; Santa Cruz Biotechnologies) was added to the culture medium for a final concentration of 1 μM or 10 μM, respectively; equal dilution of DMSO was used as vehicle control.

Row | Molecule | increase in EGFR phosphorylation (p-EGFR grey values) (EGFR phosphorylation; growth media alone, FIGS. 12A and 12B) [%] | increase in EGFR phosphorylation (p-EGFR grey values) (EGFR phosphorylation; in the presence of added recombinant EGF) [%] | increase in total numbers of myogenic cells (mdx satellite cells)
1 | CCc1oc2cc(S(=O)(=O)Nc3ccc(S(=O)(=O)Nc4nccs4)cc3)ccc2c1C(=O)c1cc(Br)c(O)c(Br)c1 [PTP1b inhibitor, 3-(3,5-dibromo-4-hydroxy-benzoyl)-2-ethyl-benzofuran-6-sulfonicacid-(4-(thiazol-2-ylsulfamyl)-phenyl)-amide, reference compound] | 80 | 20 | 
2 | EGF: human recombinant EGF protein (Life Technologies), direct activator of the EGFR pathway |  |  | about 14%
